We go through one compound from patent publication US20250129486A1, “A METHOD FOR MANUFACTURING PHARMACEUTICAL GRADE HYPOCHLOROUS ACID” (priority 2022, published 2025).

For data set [1] the following is noted: cited from earlier work.
The nature of data set [2]: Storage stability of HOCl solution by container. In kind it is physicochemical. To be noted: any form of plastic container. An excerpt:
The present invention relates to a method of manufacture of pharmaceutical grade hypochlorous acid (HOCl) solution. The solution is free of toxic by-products and is manufactured by means of a process that is novel. Furthermore, the manufacturing process results in high concentration HOCl solution at a pre-determined pH level. The solution is stable when kept in UV-protected glass for two years. Due to the method and process of manufacture, the solution is of a pharmaceutical grade.
HOCl+UV light→OH+Cl^−+O3 [Reaction Formula 11] • It is therefore essential to store solutions containing HOCl in UV-protected inert containers. • ii) The container in which the solutions are kept should be made of glass. […] Glass containers avoid oxidation reactions between the container and HOCl. • iii) Stable HOCl production requires platinum grade reactants, including pure water without any organic and inorganic compounds or ions, as the oxidation of these compounds will deplete the HOCl concentration in the solution. • iv) Correcting the solution pH to between 4.0-5.80 immediately after manufacturing, through real-time buffering. Variation outside pH 4.0 to 5.80 will not only result in the dissociation of HOCl into Cl2 or OCl^− but will provide the environment for the decomposition of HOCl to form chlorate. It is therefore of utmost importance that this pH level

Take `OCl` [HOCl, hypochlorous acid]: in data set [1], the pKa (in general, the negative logarithm of the acid dissociation constant) is 7.53. In data set [2], the “Decomposition of HOCl in container” value is “marked decomposition”.
